Reference: ChEMBL document CHEMBL1201862, “PubChem BioAssay data set” (2004)
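Dose response: 5 concentrations. Exposure: 48 h. Format: 96-well plates. Endpoint: linear interpolation; highest concentration if not reached. GI50 is the concentration that inhibits growth by half.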 The source made the active and inactive calls. Rule as the data show it: active = GI50 up to about 1.1 µM and inactive = higher.

What was measured:
Assay in all cases: growth of human tumour cells (NCI), 48 h
A498 = tested on: A498
HCT-116 = tested on: HCT-116
Hs-578T = tested on: Hs-578T
IGROV-1 = tested on: IGROV-1
MDA-MB-231 = tested on: MDA-MB-231
MOLT-4 = tested on: MOLT-4
Malme-3M = tested on: Malme-3M
NCI-H522 = tested on: NCI-H522
NCI/ADR-RES = tested on: NCI/ADR-RES
OVCAR-5 = tested on: OVCAR-5
RPMI-8226 = tested on: RPMI-8226
SF-295 = tested on: SF-295
SK-MEL-28 = tested on: SK-MEL-28
SK-MEL-2 = tested on: SK-MEL-2
SK-MEL-5 = tested on: SK-MEL-5
T47D = tested on: T47D
TK-10 = tested on: TK-10
U-251 = tested on: U-251
CCRF-CEM = tested on: CCRF-CEM
HCC 2998 = tested on: HCC 2998

SMILES	GI50 (A498)	GI50 (HCT-116)	GI50 (Hs-578T)	GI50 (IGROV-1)	GI50 (MDA-MB-231)	GI50 (MOLT-4)	GI50 (Malme-3M)	GI50 (NCI-H522)	GI50 (NCI/ADR-RES)	GI50 (OVCAR-5)	GI50 (RPMI-8226)	GI50 (SF-295)	GI50 (SK-MEL-28)	GI50 (SK-MEL-2)	GI50 (SK-MEL-5)	GI50 (T47D)	GI50 (TK-10)	GI50 (U-251)	GI50 (CCRF-CEM)	GI50 (HCC 2998)
O=C(O)CSCC(=O)c1ccccc1	> 100 µM (inactive)	> 100 µM (inactive)	> 100 µM (inactive)	> 100 µM (inactive)	> 100 µM (inactive)	> 100 µM (inactive)	> 100 µM (inactive)	> 100 µM (inactive)	> 100 µM (inactive)	> 100 µM (inactive)	> 100 µM (inactive)	> 100 µM (inactive)	> 100 µM (inactive)	> 100 µM (inactive)	> 100 µM (inactive)	> 100 µM (inactive)	> 100 µM (inactive)	> 100 µM (inactive)		
O=C(OCc1ccccc1)N1CCNCCN(C(=O)OCc2ccccc2)CCNCC1	27.5 µM (inactive)	16.2 µM (inactive)	21.2 µM (inactive)	32.2 µM (inactive)	1.82 µM (inactive)	18 µM (inactive)		16.3 µM (inactive)	75.7 µM (inactive)	32.2 µM (inactive)	20.2 µM (inactive)	23.9 µM (inactive)	19.5 µM (inactive)	20.1 µM (inactive)	13.4 µM (inactive)	0.254 µM (active)	91.8 µM (inactive)	22 µM (inactive)	36.5 µM (inactive)	
Cc1cc(=O)n2nc(CSc3nnc(N)s3)sc2n1		> 100 µM (inactive)	> 100 µM (inactive)	> 100 µM (inactive)	> 100 µM (inactive)	> 100 µM (inactive)	> 100 µM (inactive)	> 100 µM (inactive)	> 100 µM (inactive)	> 100 µM (inactive)	> 100 µM (inactive)	> 100 µM (inactive)	> 100 µM (inactive)	> 100 µM (inactive)	> 100 µM (inactive)	> 100 µM (inactive)	> 100 µM (inactive)	> 100 µM (inactive)	> 100 µM (inactive)	> 100 µM (inactive)
COc1ccc(C2SCC(=O)N2NC(=O)C(C)Oc2ccc(Cl)cc2Cl)cc1 (stereo unspecified)	25 µM (inactive)	36.6 µM (inactive)	34.5 µM (inactive)	37 µM (inactive)	26.7 µM (inactive)	28.3 µM (inactive)		91.2 µM (inactive)	56.6 µM (inactive)	> 100 µM (inactive)	30.7 µM (inactive)	36.1 µM (inactive)	30.9 µM (inactive)	50.2 µM (inactive)	46.5 µM (inactive)	28.4 µM (inactive)	42.6 µM (inactive)	33.7 µM (inactive)		55.6 µM (inactive)
COc1ccc(-n2c(=O)n(C)c(=O)n2-c2ccc(OC)cc2)cc1	> 100 µM (inactive)	98.6 µM (inactive)	9.48 µM (inactive)	> 100 µM (inactive)	> 100 µM (inactive)	> 100 µM (inactive)			> 100 µM (inactive)	> 100 µM (inactive)	> 100 µM (inactive)	> 100 µM (inactive)	> 100 µM (inactive)	> 100 µM (inactive)	> 100 µM (inactive)	> 100 µM (inactive)	> 100 µM (inactive)	> 100 µM (inactive)	> 100 µM (inactive)	
COC(=O)CN(CC1O[C@@H]2OC(C)(C)O[C@@H]2C1NC(C)=O)C(=O)OCc1ccccc1 (stereo partly specified)	> 100 µM (inactive)	> 100 µM (inactive)	> 100 µM (inactive)	> 100 µM (inactive)	> 100 µM (inactive)	> 100 µM (inactive)		> 100 µM (inactive)	> 100 µM (inactive)	> 100 µM (inactive)	> 100 µM (inactive)	> 100 µM (inactive)	> 100 µM (inactive)	> 100 µM (inactive)	> 100 µM (inactive)	> 100 µM (inactive)	> 100 µM (inactive)	> 100 µM (inactive)		> 100 µM (inactive)
COc1ccc(/N=N/C(=N\c2ccccc2)c2ccc(N(CCC#N)CCC#N)cc2)cc1	67.6 µM (inactive)	43.4 µM (inactive)	45.8 µM (inactive)	23.4 µM (inactive)	22.9 µM (inactive)	28.8 µM (inactive)		22.7 µM (inactive)	95.3 µM (inactive)	> 100 µM (inactive)	41 µM (inactive)	31.2 µM (inactive)	> 100 µM (inactive)	30.3 µM (inactive)	47.1 µM (inactive)	33.5 µM (inactive)	61.1 µM (inactive)	31.4 µM (inactive)		33.2 µM (inactive)
CC(=O)O[C@H]1CC[C@@]2(C)C(=CC[C@@H]3[C@@H]2CC[C@]2(C)c4c(C)nn(-c5ccccc5)c4C[C@@H]32)C1	24 µM (inactive)	31 µM (inactive)	11.2 µM (inactive)	43.4 µM (inactive)	25.1 µM (inactive)	13.2 µM (inactive)		13.7 µM (inactive)	34.9 µM (inactive)	22.2 µM (inactive)		3.55 µM (inactive)	25.5 µM (inactive)		37.2 µM (inactive)	33 µM (inactive)	22.8 µM (inactive)	20.7 µM (inactive)	11.2 µM (inactive)	16.4 µM (inactive)
Nc1cc2ncnc(Nc3cccc(Br)c3)c2cn1	3.61 µM (inactive)	49.5 µM (inactive)	33.7 µM (inactive)	> 10 µM (inactive)	45.2 µM (inactive)	> 100 µM (inactive)	> 100 µM (inactive)		45.6 µM (inactive)	26.7 µM (inactive)	52.5 µM (inactive)	26.9 µM (inactive)	71.9 µM (inactive)	19.8 µM (inactive)	42.7 µM (inactive)	23.9 µM (inactive)	2.52 µM (inactive)	18.7 µM (inactive)	96.8 µM (inactive)	
Cc1ccc2nc(Cl)c(/C=N/N3C(=O)/C(=C/c4ccccc4S)N=C3c3ccccc3)cc2c1	29.5 µM (inactive)	30.1 µM (inactive)	22.3 µM (inactive)	29.1 µM (inactive)	> 100 µM (inactive)	1.85 µM (inactive)			22.9 µM (inactive)	> 100 µM (inactive)	21.4 µM (inactive)	25.3 µM (inactive)	> 100 µM (inactive)	20.4 µM (inactive)	31.6 µM (inactive)	48.5 µM (inactive)	48.6 µM (inactive)	28.1 µM (inactive)	15.5 µM (inactive)	45.3 µM (inactive)
CCOC(=O)c1c(NC(=O)c2ccc(OC)cc2)sc2c1CCCC2	> 100 µM (inactive)	> 100 µM (inactive)	> 100 µM (inactive)	> 100 µM (inactive)	> 100 µM (inactive)	> 100 µM (inactive)			> 100 µM (inactive)	> 100 µM (inactive)	> 100 µM (inactive)	> 100 µM (inactive)	> 100 µM (inactive)	> 100 µM (inactive)	> 100 µM (inactive)	> 100 µM (inactive)	> 100 µM (inactive)	> 100 µM (inactive)	> 100 µM (inactive)	
